# Reference: the supplement of paper PMC12317010
# Where a name gives a salt, the structure may show the parent alone.
# Experiment: collision cross section in nitrogen (drift tube, single-field); higher = larger gas-phase ion size
# [1] = ion type: [M+H], ion source: APCI, ion mode: Positive
# [2] = ion type: [M+H], ion source: ESI, ion mode: Positive
# [3] = ion type: [M+Na], ion source: ESI, ion mode: Positive
# [4] = ion type: [M-H], ion source: ESI, ion mode: Negative
# [5] = ion type: [M+], ion source: APCI, ion mode: Positive
# 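Further: chemical standards at 10 µM analysed by drift tube IMS-QTOF MS in about 3.95 torr nitrogen, mean of duplicate injections differing ≤1%, mass error below 10 ppm.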
Compound,collision cross section in nitrogen [1] [Å²],collision cross section in nitrogen [4] [Å²],collision cross section in nitrogen [2] [Å²],collision cross section in nitrogen [3] [Å²],also measured
FC(F)(F)c1ccc(OCCCOc2c(Cl)cc(OCC=C(Cl)Cl)cc2Cl)nc1 [Pyridalyl],203,,203.8,215,
Cc1ncc(CO)c(CO)c1O [Pyridoxine hydrochloride],133.7,133.3,,144,
Cc1ncc(CO)c(CO)c1O [Pyridoxine],133.7,133.2,134.6,,
CCc1nc(N)nc(N)c1-c1ccc(Cl)cc1 [Pyrimethamine],158.8,,159.4,,
Cc1cc(C)nc(Nc2ccccc2)n1 [Pyrimethanil],143.4,,143.8,,
CC(COc1ccc(Oc2ccccc2)cc1)Oc1ccccn1 (centres undefined) [Pyriproxyfen],184.3,,184.3,185.4,
COc1cc(OC)nc(Sc2cccc(Cl)c2C(=O)O)n1 [Pyrithiobac sodium],166.7,,166.6,173.5,
COc1cc(OC)nc(Sc2cccc(Cl)c2C(=O)O)n1 [Pyrithiobac],167.1,,166.7,173.3,
CCCCCCCCCCCCCCCC[N+](C)(C)CC [Quaternium 17],,,,,"collision cross section in nitrogen (ion source: APCI, ion mode: Positive, ion type: [M]+ (permanent cation)): 196.1 Å²; collision cross section in nitrogen (ion source: ESI, ion mode: Positive, ion type: [M]+ (permanent cation)): 197.2 Å²"
O=C(O)c1c(Cl)ccc2cc(Cl)cnc12 [Quinclorac],,,142.6,,
Cc1cnc2c(C(=O)O)c(Cl)ccc2c1 [Quinmerac],139.6,,140.7,158,
Fc1ccc(Oc2ccnc3cc(Cl)cc(Cl)c23)cc1 [Quinoxyfen],165.8,,165.5,,
COC(=O)[C@H]1[C@H]2C[C@@H]3c4[nH]c5cc(OC)ccc5c4CCN3C[C@H]2C[C@@H](OC(=O)c2cc(OC)c(OC)c(OC)c2)[C@@H]1OC [Reserpine],,,,,collision cross section in nitrogen [5]: 242.8 Å²
CC(C)=CC1C(C(=O)OCc2coc(Cc3ccccc3)c2)C1(C)C (centres undefined) [Resmethrin],,,,177.8,

# More lines, main results first:
collision cross section in nitrogen [1] [Å²],collision cross section in nitrogen [4] [Å²],Compound,collision cross section in nitrogen [2] [Å²],collision cross section in nitrogen [3] [Å²],also measured
,164.7,O=c1c(O)c(-c2ccc(O)c(O)c2)oc2cc(O)cc(O)c12 [Quercetin],,,
192.1,183.5,OCCOCCN1CCN(C2=Nc3ccccc3Sc3ccccc32)CC1 [Quetiapine fumarate],192.3,188.6,
,150.5,O=C1c2ccc(O)c(O)c2C(=O)c2c(O)ccc(O)c21 [Quinalizarin],,,
120.8,,c1ccc2ncccc2c1 [Quinoline],,,
189.4,,COCCCOc1ccnc(CS(=O)c2nc3ccccc3[nH]2)c1C (centres undefined) [Rabeprazole sodium],,179.5,collision cross section in nitrogen [5]: 187.8 Å²
215.7,213.4,O=C(c1ccc(OCCN2CCCCC2)cc1)c1c(-c2ccc(O)cc2)sc2cc(O)ccc12 [Raloxifene hydrochloride],215.2,220.7,
169.2,179.5,CNC(=C[N+](=O)[O-])NCCSCc1ccc(CN(C)C)o1 [Ranitidine],169,176.2,
,152.9,O=C(Oc1cccc(O)c1)c1ccccc1 [Resorcinol monobenzoate],,,
,118.9,Oc1cccc(O)c1 [Resorcinol],,,
,159.3,Oc1ccc(/C=C/c2cc(O)cc(O)c2)cc1 [Resveratrol],,,collision cross section in nitrogen [5]: 155.1 Å²
